Results from patent publication US4795715A, “Aminoalkoxy or carboxyalkoxy derivatives of propranolol for immunoassay applications” (Drug Science Foundation, priority 1986, dated 1989).

Tested on: propranolol antiserum (produced in Example 1)
Test: Specificity (cross-reactivity) of the antiserum of Example 1: inhibition of 3H propranolol-antibody complex formation (radioimmunoassay)
Type: binding, rabbit
Conditions: for relative efficiency of the compound with respect to propranolol as an inhibitor (percentage): propranolol = 100 %; for ID50 (amount of compound giving 50% inhibition of 3H-propranolol binding to antiserum): dl-[4-3H]-propranolol tracer
Procedure: Five New Zealand White rabbits were injected with an emulsion of the antigen as follows. For each animal, a solution was prepared consisting of 1 mg. of antigen dissolved in 0.8 ml. of 0.01M phosphate buffered saline at pH 7.4 and emulsified with 1.0 ml. of complete Freund's adjuvant. One hundred microliters of this emulsion was injected subcutaneously into each of the hind toe pads with the remainder divided between the hindquarters intramuscularly. One week later the animals were boosted with the same formulation, and additional boosts were administered at montly intervals thereafter. […] Bleedings were taken from the central ear artery seven to ten days after each boost, and weekly once the titre was sufficient. Blood was allowed to clot overnight at 4° C. and centrifuged to separate antiserum.
Radioactive dl-[4-^3 H]-propranolol with a specific activity of 21 C./mMol was obtained from the Radiochemical Center Amersham. This tritiated propranolol was diluted in the assay buffer just prior to use to obtain about 15000 cpm in 100 microliters of solution; 100 microliters of this preparation was added to each tube, including two background controls. The propranolol antiserum was diluted to 1:2000 in the buffer and 100 microliters of this solution was added to each tube with the exception of the background controls. The tubes were then vortexed, incubated at 37° C. for one hour, and cooled in an ice bath for 10 minutes prior to the addition of dextran-coated charcoal suspension.
Each tube was treated with one ml. of cold dextran-coated charcoal suspension and vortexed briefly, then incubated at 0° C. for 7-10 minutes prior to centrifugation at 5000 RPM in a refrigerated centriguge for 25 minutes. The supernatants were decanted into suitably labelled scintillation vials, dissolved in 10 ml. of counting cocktail and counted for 1-5 minutes. Counting cocktail was prepared by dissolving 40 g. of Omnifluor™ (purchased from New England Nuclear) and 2 liters of S-A-S Solubilizer™ (purchased from Research Products International Corp.) in 10 liters of toluene.

SMILES | cross reactivity with the antiserum (in words) | relative efficiency of the compound with respect to propranolol as an inhibitor (percentage) [%] | ID50 (amount of compound giving 50% inhibition of 3H-propranolol binding to antiserum) [ng]
CC(C)NCC(O)COc1cccc2c(O)cccc12 (stereo not drawn) [5-Hydroxy-Propranolol] | cross-react | 90 | –
NCC(O)COc1cccc2ccccc12 (stereo not drawn) [Ndesisopropyl Propranolol Amino] | – | 0.06 | 780
CC(C)NCC(COc1cccc2ccccc12)OC1OC(C(=O)O)C(O)C(O)C1O (stereo not drawn) [Propranolol Glucuromide] | – | 0.07 | 700
CC(C)NCC(O)COc1cccc2ccccc12 (racemic) [Propranolol] | – | 100 | –
CC(C)NCC(O)COc1ccc(O)c2ccccc12 (stereo not drawn) [4-Hydroxy-Propranolol] | significant cross reactivity | 30 | –
